We go through one compound from patent US20250041377A1, “PHARMACEUTICAL USE” (ENLITISA (SHANGHAI) PHARMACEUTICAL CO., LTD., priority 2018, published 2025).

The subject of assay [1] is operation pain during laser surgery. Put plainly: Liquid spray to relieve operational pain during laser surgery. The class given is in vivo, human. How it is done: The enrolled subject was required to use 1 mL of a liquid spray comprising the same formulation as that described in Example 14 above in a water spray bottle on half of their face before and after a lattice laser operation to remove of facial melanin.

The test system of the next assay is closed comedones. The experiment in a line: Cream to treat closed comedones. The class given is in vivo, human. As to conditions: cream 0.1 mg/g, morning and evening. As for the experimental part: Compound B (10 mg; see Example 1 above) was first dissolved in WFI (10 g).
A mixture was then made comprising sorbitan stearate (2 g), cetyl alcohol (4 g), octanoic/capric glyceride (6 g) and glyceryl monostearate (3 g) (all Sinopharm Chemical Reagent Co. Ltd.), which was stirred and heated to 85° C. to melt the mixture completely.
Glycerin (5 g; Sinopharm Chemical Reagent Co. Ltd.) and ammonium acryloyldimethyltaurate/VP copolymer (0.13 g; Clariant Chemical (Guangzhou) Co., Ltd., China) were mixed with 68.86 g of WFI. This mixture was stirred and heated to 85° C. to provide a homogeneous colloidal suspension.
The copolymer/water mixture was added to the sorbitan stearate-containing mixture, which was then quickly stirred using emulsification equipment for 5 minutes. The resultant emulsion was cooled to room temperature.
The Compound B solution was then added to the resultant mixture with stirring to obtain the finished cream. The concentration of Compound B in the final cream was 0.1 mg/g.
Subjects with closed comedones (blocked pores) and in an acute attacking period of acne were enrolled in the study. Symptoms included sebaceous glands blocked by keratinocytes, forming a slightly hard lump and a protruding white head.
The cream was evenly smeared in the morning and evening after facial cleansing.

Where a SMILES comes first, the peptide text is derived from it. [ ]: non-standard residue; d: D form. Hyp = O=C(O)[CH]1C[CH](O)CN1

As for `CC(N)C(=O)NC(CCCCN)C(=O)N1CCCC1C(=O)NC(CO)C(=O)NC(Cc1ccc(O)cc1)C(=O)N1CC(O)CC1C(=O)N1CC(O)CC1C(=O)NC(C(=O)NC(Cc1ccc(O)cc1)C(=O)NC(CCCCN)C(=O)O)C(C)O` (stereo not drawn) [Compound B, Ala-Lys-Pro-Ser-Tyr-Hyp-Hyp-Thr-Tyr-Lys] (H-AKPSY[Hyp][Hyp]TYK-OH; configuration not given here), in assay [1] (1 mL liquid spray 0.5 mg/mL on half of face before and after operation), the “pain during lattice laser operation” value is given as “did not feel pain during the operation”. Besides, in assay [1] (sprayed half of face, unsprayed half: pain lasted about 2 hours), the “pain after lattice laser operation” value is reported as “felt no pain after the operation”. For the same compound, the “lumps of closed comedones” value in the assay with closed comedones is on record as “disappeared after 1 day of use”.
